Literature values, collected in patent publication US11919851B2, “Method for producing polyol-based esters of optionally acylated hydroxycarboxylic acids” (IOI Oleo GmbH, priority 2019, dated 2024).

Conditions: free acid and its salts; prior art statement

## CC(O)CC(=O)O (stereo not shown) [3-hydroxybutyric acid]
  adverse effects on oral administration: can cause severe vomiting and nausea
